Tests used:
Assay in all cases: biochemical
Design in all cases: SelectScreen LanthaScreen kinase binding assay, per cent tracer displacement, mean of two points
Settings in all cases: tracer displacement
BMPR2 = target: T1, BMPR2 (Homo sapiens, UniProt Q13873)
T1 sequence (Q13873 1-1038): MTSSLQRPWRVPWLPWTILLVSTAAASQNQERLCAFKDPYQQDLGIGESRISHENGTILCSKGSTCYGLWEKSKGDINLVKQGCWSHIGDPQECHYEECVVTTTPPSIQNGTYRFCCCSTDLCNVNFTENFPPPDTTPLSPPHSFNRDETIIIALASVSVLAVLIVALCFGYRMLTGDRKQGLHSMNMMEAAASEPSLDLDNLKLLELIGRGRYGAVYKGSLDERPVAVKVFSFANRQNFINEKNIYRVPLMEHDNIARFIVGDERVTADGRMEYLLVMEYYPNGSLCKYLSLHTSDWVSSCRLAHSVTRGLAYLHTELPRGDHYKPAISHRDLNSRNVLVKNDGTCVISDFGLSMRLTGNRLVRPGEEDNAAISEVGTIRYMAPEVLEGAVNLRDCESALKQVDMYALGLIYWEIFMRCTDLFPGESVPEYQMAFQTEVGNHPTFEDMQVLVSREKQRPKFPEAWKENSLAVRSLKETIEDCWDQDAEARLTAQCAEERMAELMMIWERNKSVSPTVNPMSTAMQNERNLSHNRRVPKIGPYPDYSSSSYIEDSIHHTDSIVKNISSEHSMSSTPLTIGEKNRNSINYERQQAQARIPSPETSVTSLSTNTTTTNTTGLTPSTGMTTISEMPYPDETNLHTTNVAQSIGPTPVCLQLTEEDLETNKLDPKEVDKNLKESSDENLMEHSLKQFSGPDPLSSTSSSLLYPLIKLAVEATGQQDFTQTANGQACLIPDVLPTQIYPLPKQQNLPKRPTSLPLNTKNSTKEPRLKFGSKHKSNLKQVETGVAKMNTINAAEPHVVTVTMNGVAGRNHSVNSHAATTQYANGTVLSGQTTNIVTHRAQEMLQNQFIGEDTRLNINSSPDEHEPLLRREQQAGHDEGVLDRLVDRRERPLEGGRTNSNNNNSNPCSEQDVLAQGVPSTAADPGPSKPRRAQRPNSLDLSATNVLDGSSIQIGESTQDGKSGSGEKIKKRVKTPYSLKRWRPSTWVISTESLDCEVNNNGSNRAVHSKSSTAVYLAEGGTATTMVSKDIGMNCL

WNK1 = WNK1 (Homo sapiens, UniProt Q9H4A3)
RAF1 (cRAF) Y340D Y341D = RAF1 (cRAF) Y340D Y341D (Homo sapiens, UniProt P04049, Y340D/Y341D)
CDK2/cyclin O = CDK2/cyclin O (Homo sapiens, UniProt P24941)
CAMKK2 (CaMKK beta) = CAMKK2 (CaMKK beta) (Homo sapiens, UniProt Q96RR4)
TGFBR1 (ALK5) = target: T2, TGFBR1 (ALK5) (Homo sapiens, UniProt P36897)
T2 sequence (P36897 1-503): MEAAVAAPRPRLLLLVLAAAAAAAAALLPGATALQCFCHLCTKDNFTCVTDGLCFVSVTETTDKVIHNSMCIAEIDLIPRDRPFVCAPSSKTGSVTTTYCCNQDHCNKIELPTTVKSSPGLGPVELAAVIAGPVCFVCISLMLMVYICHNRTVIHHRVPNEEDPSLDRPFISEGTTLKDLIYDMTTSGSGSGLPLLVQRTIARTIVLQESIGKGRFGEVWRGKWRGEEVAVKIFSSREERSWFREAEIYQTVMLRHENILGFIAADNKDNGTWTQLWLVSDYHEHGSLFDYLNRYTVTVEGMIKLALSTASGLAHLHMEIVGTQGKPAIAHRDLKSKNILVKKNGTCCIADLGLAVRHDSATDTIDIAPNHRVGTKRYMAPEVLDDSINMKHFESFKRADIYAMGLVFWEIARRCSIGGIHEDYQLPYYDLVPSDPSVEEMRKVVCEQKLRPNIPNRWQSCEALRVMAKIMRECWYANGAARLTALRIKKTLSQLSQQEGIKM

KIT D816V = KIT D816V (Homo sapiens, UniProt P10721, D816V)
MKNK2 (MNK2) = MKNK2 (MNK2) (Homo sapiens, UniProt Q9HBH9)
MAP2K1 (MEK1) = MAP2K1 (MEK1) (Homo sapiens, UniProt Q02750)
MAP2K2 (MEK2) = MAP2K2 (MEK2) (Homo sapiens, UniProt P36507)

MAP2K1 (MEK1), sequence (Q02750 whole entry): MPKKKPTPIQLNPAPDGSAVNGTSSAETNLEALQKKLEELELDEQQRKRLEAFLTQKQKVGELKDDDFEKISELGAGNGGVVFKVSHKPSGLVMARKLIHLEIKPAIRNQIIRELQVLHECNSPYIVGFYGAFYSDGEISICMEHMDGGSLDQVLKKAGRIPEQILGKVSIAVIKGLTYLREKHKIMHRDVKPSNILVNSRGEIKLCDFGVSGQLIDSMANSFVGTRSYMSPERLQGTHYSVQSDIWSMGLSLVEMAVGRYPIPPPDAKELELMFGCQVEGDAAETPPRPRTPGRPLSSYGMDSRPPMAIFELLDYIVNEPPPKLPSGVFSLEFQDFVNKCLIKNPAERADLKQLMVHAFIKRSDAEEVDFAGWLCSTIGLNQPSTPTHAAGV
KIT D816V, sequence (P10721 whole entry D816V): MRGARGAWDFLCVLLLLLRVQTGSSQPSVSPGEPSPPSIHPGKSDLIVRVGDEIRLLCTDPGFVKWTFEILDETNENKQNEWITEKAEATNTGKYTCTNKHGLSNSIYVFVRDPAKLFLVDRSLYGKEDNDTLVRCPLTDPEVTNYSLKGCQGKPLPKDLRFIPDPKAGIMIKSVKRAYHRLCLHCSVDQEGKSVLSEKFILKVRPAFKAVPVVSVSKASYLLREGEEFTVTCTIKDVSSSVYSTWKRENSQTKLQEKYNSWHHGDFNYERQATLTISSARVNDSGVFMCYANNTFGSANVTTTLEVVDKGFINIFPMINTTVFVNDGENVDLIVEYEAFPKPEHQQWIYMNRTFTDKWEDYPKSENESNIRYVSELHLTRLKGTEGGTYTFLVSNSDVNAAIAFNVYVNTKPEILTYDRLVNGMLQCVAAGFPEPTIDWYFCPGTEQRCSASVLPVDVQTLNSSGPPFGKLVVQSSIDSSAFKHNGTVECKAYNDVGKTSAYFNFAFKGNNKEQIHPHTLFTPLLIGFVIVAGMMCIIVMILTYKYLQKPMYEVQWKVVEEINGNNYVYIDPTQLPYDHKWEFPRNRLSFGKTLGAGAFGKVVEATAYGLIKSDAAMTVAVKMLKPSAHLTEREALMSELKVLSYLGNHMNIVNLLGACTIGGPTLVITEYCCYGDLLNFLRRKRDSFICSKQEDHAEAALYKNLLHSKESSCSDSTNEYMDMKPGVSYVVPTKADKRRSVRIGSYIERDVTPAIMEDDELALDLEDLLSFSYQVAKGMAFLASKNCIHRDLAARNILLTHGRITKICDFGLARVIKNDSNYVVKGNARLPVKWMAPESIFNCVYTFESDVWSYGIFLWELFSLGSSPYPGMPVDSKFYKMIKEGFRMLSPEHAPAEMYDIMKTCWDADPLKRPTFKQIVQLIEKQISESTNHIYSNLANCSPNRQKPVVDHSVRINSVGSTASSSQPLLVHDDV
MKNK2 (MNK2), sequence (Q9HBH9 whole entry): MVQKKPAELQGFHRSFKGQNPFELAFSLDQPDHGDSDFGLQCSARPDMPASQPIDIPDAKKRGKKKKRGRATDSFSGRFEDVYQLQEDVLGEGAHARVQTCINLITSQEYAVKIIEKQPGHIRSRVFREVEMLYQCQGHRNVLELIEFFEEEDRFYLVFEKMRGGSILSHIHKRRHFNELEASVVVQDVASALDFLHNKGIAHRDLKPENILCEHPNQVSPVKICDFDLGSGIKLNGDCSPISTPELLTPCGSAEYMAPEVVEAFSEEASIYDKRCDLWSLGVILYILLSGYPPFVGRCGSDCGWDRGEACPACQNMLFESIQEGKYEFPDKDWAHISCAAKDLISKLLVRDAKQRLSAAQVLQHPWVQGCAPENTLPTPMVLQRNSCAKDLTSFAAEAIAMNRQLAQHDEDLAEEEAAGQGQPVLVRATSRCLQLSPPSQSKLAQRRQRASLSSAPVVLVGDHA
RAF1 (cRAF) Y340D Y341D, sequence (P04049 whole entry Y340D/Y341D): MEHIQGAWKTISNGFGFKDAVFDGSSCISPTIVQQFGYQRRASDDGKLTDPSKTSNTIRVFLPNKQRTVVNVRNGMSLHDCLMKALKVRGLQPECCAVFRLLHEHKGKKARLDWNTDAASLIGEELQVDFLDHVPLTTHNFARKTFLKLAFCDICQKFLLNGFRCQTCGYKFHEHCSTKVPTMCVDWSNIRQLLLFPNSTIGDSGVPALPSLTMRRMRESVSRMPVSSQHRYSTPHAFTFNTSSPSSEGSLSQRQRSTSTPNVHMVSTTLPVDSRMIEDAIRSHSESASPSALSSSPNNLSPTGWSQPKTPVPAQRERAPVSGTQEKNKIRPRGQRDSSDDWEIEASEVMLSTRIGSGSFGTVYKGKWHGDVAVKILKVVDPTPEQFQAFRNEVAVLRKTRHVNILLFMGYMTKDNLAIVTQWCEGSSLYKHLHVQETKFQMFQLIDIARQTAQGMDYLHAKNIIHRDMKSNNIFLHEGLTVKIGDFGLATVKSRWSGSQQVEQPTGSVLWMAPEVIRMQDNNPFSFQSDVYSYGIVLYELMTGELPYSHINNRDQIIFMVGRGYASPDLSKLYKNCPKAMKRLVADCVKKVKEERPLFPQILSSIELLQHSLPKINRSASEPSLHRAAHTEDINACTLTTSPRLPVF
WNK1, sequence (Q9H4A3 whole entry): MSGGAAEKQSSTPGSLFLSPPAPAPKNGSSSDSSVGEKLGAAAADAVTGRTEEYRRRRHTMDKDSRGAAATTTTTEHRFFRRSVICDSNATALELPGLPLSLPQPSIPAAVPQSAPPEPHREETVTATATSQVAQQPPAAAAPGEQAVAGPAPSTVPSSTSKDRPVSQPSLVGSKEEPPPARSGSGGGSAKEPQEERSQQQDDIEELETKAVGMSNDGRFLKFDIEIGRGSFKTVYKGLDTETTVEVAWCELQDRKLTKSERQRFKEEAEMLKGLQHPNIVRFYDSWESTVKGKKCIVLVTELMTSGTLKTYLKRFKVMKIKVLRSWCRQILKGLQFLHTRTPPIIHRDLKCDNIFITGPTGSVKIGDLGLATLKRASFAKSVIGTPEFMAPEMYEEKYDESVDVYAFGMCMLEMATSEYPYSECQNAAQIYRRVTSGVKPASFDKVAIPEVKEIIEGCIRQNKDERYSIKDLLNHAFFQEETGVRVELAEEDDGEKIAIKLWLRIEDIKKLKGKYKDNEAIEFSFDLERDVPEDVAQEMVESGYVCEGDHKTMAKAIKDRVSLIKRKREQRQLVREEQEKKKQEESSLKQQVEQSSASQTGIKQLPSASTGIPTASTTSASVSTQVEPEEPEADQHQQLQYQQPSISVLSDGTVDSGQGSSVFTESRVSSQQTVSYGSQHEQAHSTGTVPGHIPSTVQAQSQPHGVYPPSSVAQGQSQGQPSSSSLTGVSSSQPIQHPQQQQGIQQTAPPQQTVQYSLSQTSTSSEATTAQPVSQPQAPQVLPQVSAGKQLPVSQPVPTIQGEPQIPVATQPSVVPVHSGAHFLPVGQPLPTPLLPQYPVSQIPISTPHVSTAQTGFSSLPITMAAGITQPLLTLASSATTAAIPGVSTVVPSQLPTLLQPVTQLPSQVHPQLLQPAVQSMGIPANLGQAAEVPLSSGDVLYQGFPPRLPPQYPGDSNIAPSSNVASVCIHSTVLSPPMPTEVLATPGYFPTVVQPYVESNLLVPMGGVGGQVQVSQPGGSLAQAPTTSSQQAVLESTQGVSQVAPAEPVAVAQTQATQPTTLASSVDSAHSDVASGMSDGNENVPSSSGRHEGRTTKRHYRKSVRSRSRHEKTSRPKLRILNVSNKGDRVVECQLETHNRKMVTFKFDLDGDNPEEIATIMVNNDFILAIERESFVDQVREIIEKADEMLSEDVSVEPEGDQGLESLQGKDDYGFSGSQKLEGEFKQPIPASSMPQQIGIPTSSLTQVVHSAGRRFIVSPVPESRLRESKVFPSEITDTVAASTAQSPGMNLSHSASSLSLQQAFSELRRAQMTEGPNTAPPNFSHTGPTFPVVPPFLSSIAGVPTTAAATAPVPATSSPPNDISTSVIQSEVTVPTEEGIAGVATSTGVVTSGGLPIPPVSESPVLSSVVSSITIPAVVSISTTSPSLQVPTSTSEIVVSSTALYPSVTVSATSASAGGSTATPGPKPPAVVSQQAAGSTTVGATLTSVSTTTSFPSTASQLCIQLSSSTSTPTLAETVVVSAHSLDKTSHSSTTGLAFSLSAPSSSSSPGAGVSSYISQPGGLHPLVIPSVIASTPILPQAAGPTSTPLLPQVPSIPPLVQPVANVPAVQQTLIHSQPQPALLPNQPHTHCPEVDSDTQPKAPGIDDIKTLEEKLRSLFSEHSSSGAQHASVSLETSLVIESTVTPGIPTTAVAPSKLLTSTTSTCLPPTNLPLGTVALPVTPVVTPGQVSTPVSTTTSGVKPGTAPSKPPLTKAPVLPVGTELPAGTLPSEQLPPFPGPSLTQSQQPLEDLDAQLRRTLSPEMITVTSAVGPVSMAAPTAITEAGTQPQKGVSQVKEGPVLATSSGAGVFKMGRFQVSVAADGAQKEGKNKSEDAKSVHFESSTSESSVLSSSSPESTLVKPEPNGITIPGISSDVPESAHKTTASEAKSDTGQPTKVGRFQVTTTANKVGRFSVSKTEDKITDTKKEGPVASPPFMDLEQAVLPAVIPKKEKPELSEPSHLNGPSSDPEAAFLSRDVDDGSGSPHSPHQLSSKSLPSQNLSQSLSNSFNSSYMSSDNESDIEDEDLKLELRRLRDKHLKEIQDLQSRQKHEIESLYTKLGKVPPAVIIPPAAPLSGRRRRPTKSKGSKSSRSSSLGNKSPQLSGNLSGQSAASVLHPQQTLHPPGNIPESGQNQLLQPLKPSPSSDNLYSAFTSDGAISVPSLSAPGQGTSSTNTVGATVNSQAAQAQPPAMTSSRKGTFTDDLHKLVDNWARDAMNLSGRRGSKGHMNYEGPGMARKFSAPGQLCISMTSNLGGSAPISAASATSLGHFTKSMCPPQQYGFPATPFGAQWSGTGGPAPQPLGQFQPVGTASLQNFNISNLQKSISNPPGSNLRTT

## CS(=O)(=O)Nc1cccc(-c2csc(NC(=O)CSc3nc4nccnc4c(=O)n3CCc3ccccc3)n2)c1 [compound 3, PITCOIN3]
BMPR2
  inhibition at 1 µM: 11.6%
  inhibition at 3 µM: 13.1%
  inhibition at 10 µM: 17.3%
WNK1
  inhibition at 1 µM: -2.33%
  inhibition at 3 µM: -3.62%
  inhibition at 10 µM: 0.594%
RAF1 (cRAF) Y340D Y341D
  inhibition at 1 µM: -1.02%
  inhibition at 3 µM: 3.96%
  inhibition at 10 µM: 3.33%
CDK2/cyclin O
  inhibition at 1 µM: 18.1%
  inhibition at 3 µM: 11.6%
  inhibition at 10 µM: 2.75%
CAMKK2 (CaMKK beta)
  inhibition at 1 µM: 2.3%
  inhibition at 3 µM: 4.67%
  inhibition at 10 µM: 4.93%
TGFBR1 (ALK5)
  inhibition at 1 µM: -4.81%
  inhibition at 3 µM: 14.1%
  inhibition at 10 µM: 1.48%
KIT D816V
  inhibition at 1 µM: 6.33%
  inhibition at 3 µM: 6.29%
  inhibition at 10 µM: 5.56%
MKNK2 (MNK2)
  inhibition at 1 µM: -4.48%
  inhibition at 3 µM: 1.13%
  inhibition at 10 µM: -10.9%
MAP2K1 (MEK1)
  inhibition at 1 µM: -0.643%
  inhibition at 3 µM: 0.136%
  inhibition at 10 µM: -2.2%
MAP2K2 (MEK2)
  inhibition at 1 µM: 0.637%
  inhibition at 3 µM: 2.82%
  inhibition at 10 µM: -3.31%

## O=C(CSc1nc2nccnc2c(=O)n1CCc1ccccc1)Nc1nccs1 [compound 1, PITCOIN1]
BMPR2
  inhibition at 1 µM: -1.13%
  inhibition at 3 µM: 0.974%
  inhibition at 10 µM: 3.06%
WNK1
  inhibition at 1 µM: -6.21%
  inhibition at 3 µM: -5.06%
  inhibition at 10 µM: -3.46%
RAF1 (cRAF) Y340D Y341D
  inhibition at 1 µM: -5.58%
  inhibition at 3 µM: -2.49%
  inhibition at 10 µM: -0.882%
CDK2/cyclin O
  inhibition at 1 µM: 17.6%
  inhibition at 3 µM: -4.45%
  inhibition at 10 µM: 7.96%
CAMKK2 (CaMKK beta)
  inhibition at 1 µM: -0.673%
  inhibition at 3 µM: -0.395%
  inhibition at 10 µM: 3.84%
TGFBR1 (ALK5)
  inhibition at 1 µM: -5.43%
  inhibition at 3 µM: 9.69%
  inhibition at 10 µM: 5.12%
KIT D816V
  inhibition at 1 µM: -3.29%
  inhibition at 3 µM: 2.7%
  inhibition at 10 µM: -1.13%
MKNK2 (MNK2)
  inhibition at 1 µM: -2.8%
  inhibition at 3 µM: -3.55%
  inhibition at 10 µM: -10.1%
MAP2K1 (MEK1)
  inhibition at 1 µM: -0.281%
  inhibition at 3 µM: 2.33%
  inhibition at 10 µM: -0.179%
MAP2K2 (MEK2)
  inhibition at 1 µM: -3%
  inhibition at 3 µM: 2.42%
  inhibition at 10 µM: -1.45%
